Reference: patent US20110281949A1, “METHODS AND COMPOSITIONS FOR TREATING NEURONAL DAMAGE AND MODULATING TRANSIENT RECEPTOR POTENTIAL CHANNELS” (priority 2008, published 2011)
“Also recorded” adds a separate entry of the source.

Tests used:
TRP = target: T1, TRP (Drosophila melanogaster, UniProt P19334); test: Light-induced current (LIC) in photoreceptor cells of wild-type flies (native TRP)
T1 sequence (P19334 1-1275): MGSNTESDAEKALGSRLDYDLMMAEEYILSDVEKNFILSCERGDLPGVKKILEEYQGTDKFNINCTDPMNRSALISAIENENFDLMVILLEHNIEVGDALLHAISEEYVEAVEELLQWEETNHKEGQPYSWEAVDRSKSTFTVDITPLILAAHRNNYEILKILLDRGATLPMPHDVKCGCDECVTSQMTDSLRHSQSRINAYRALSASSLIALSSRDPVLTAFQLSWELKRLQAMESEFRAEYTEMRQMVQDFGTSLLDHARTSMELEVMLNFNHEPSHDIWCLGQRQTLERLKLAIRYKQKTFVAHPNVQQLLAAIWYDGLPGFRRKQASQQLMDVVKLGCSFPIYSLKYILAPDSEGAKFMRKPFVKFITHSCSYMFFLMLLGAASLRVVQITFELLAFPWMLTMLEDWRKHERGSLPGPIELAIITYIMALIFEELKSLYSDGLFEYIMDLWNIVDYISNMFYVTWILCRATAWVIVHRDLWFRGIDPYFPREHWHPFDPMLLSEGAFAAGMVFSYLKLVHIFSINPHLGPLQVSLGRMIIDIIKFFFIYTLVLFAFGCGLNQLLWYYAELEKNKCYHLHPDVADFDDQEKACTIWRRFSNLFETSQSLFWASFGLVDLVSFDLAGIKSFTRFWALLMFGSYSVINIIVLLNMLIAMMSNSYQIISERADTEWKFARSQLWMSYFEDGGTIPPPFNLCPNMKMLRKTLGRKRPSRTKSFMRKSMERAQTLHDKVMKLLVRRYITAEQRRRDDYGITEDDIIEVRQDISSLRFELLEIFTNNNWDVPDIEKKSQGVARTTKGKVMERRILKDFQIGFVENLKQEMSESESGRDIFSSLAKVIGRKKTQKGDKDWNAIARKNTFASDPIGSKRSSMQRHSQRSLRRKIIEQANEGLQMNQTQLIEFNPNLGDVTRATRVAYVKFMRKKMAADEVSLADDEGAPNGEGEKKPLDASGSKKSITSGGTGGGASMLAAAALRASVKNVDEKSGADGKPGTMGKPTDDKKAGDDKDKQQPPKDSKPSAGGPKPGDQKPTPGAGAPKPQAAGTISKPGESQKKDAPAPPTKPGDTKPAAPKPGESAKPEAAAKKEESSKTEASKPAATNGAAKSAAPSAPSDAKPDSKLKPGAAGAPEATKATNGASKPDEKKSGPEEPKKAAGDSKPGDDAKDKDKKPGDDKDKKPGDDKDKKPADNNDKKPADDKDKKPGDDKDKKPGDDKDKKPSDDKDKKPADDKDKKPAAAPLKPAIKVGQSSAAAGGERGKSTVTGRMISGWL
Description: Drosophila white-eyed flies of the following strains were used: wt and trp^P343. Flies were raised at 24° C. in a 12 h light/dark cycle.
A tungsten trans-illumination light (12 V, 100 W halogen lamp, in conjunction with a Schott OG 590 orange edge filter and a KG3 heat filter) provided illumination for stimulation of the photoreceptors in all experiments. Stimulating light was applied via a condenser lens (Carl Zeiss Microlmaging, Inc.) and was attenuated by neutral density filters. The maximal luminous intensity of the unattenuated orange light at the level of the ommatidia was 3.2 mW/cm^2.
Dissociated Drosophila ommatidia were prepared from newly emerged flies (<1 h after eclosion) that were kept in the dark 12-18 h before the experiment. Whole-cell, patch-clamp recordings were performed as described in Peretz et al, 1994. Currents were recorded at 21° C. using borosilicate patch pipettes of 8-10 MO and an Axopatch 200B™ (Molecular Devices, Inc.) voltage-clamp amplifier. Voltage-clamp pulses were generated and data captured using a Digidata 1200™ interfaced to a computer running pClamp 8.0 software (Axon Instruments, Inc.). Currents were filtered using the 8-pole low pass Bessel filter of the patch-clamp amplifier at 5 kHz and sampled at 10 kHz. Series resistance was compensated to ˜80%. […]

TRPM7 [1] = target: T2, TRPM7 (Mus musculus, UniProt Q923J1); test: Whole-cell patch clamp of TRPM7 expressed in HEK cells; format: cell-based, mammalian; parameters: expressed in transfected cells; host or cells: HEK / HEK293 cells, transient, TransIT reagent (Mirus)
T2 sequence (Q923J1 whole entry): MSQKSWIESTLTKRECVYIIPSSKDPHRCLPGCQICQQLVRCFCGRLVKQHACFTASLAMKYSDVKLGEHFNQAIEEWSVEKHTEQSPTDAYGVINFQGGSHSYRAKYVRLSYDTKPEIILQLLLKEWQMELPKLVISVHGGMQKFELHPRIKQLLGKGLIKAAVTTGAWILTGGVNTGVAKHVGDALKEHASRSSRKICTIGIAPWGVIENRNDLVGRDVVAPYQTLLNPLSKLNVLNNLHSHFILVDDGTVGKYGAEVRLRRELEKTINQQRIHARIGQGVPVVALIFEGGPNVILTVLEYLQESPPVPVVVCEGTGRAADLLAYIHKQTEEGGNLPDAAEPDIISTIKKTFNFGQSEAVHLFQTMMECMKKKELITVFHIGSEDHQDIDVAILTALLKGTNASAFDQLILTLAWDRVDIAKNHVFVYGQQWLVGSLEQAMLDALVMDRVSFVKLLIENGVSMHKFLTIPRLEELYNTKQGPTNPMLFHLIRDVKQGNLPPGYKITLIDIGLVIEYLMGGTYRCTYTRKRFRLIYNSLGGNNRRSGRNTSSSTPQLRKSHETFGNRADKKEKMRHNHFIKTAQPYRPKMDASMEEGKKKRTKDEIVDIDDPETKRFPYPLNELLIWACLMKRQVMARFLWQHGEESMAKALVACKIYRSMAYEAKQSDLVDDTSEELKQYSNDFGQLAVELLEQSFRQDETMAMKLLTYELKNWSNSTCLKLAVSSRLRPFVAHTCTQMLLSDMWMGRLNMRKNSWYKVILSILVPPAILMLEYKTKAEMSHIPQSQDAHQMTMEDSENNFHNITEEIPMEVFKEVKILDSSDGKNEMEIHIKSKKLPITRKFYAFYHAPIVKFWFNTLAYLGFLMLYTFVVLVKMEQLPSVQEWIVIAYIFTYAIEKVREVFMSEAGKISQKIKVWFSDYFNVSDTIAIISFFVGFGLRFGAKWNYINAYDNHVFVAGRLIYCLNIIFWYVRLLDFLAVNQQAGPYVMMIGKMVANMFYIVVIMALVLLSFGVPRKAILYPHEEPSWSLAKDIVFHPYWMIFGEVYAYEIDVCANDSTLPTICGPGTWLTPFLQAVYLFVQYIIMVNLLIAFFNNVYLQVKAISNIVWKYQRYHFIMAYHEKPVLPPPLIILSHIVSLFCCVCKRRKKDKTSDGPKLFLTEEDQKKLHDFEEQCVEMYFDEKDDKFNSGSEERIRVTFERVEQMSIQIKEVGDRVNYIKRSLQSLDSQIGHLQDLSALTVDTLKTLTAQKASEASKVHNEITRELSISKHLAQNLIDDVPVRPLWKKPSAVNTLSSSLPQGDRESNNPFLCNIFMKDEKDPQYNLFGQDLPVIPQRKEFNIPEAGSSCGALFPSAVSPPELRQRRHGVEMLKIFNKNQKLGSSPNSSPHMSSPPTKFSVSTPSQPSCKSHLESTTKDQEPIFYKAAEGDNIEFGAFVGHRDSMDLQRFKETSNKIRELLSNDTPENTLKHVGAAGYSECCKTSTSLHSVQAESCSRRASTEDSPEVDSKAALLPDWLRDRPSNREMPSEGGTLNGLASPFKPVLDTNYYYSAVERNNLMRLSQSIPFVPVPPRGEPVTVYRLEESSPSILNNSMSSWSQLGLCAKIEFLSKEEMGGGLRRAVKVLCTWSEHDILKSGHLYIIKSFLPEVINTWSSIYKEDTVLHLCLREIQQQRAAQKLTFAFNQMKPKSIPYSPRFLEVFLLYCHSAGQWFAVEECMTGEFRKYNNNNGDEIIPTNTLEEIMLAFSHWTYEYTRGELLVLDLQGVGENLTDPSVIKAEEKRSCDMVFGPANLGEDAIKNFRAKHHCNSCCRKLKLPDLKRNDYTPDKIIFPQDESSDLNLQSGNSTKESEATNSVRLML
Description: Human embryonic kidney (HEK) cells were grown in 25 cm^2 flasks at 37° C. in Dulbecco's Modified Eagle's Medium (DMEM) (Beit Haemek biological industries, Israel) supplemented with 10% FBS, 1% pen-strep and 1% L-Glutamine. TRPM7 (GenBank accession number NM—021450; SEQ ID No: 19; provided by David Clapham) and pIRES-eGFP were transiently expressed using TransIT™ reagent (Mirus).
Cells were seeded on polylysine-coated plates at a confluence of 25%, 24-72 hours prior to the experiment. […] Whole-cell, patch-clamp recordings were performed as described (Parnas et al, 2007). Currents were recorded at room temperature using borosilicate patch pipettes of 5-8 MΩ and an Axopatch 1D (Molecular Devices, Inc.) voltage-clamp amplifier. Voltage-clamp pulses were generated and data captured using a Digidata 1322A interfaced to a computer running the pClamp 9.2 software (Axon Instruments, Inc.). Currents were filtered using the 8-pole low pass Bessel filter of the patch-clamp amplifier at 5 kHz and sampled at 20 kHz. To measure I-V curves with minimal distortions, only cells with low (<10 MΩ) series resistance were used, and series resistance was compensated to ˜80%.
For HEK cells, the extracellular solution contained in mM: 140 NaCl, 2.8 KCl, 2 CaCl2, 1 MgCl2, HEPES and 10 glucose. The intracellular solution contained in mM: 140 Cs-Aspartate, 8 NaCl, 10 EGTA and 10 HEPES. All solutions were titrated to pH 7.2. Cells were perfused via a BPS-8 valve control system (Scientific Instruments) at a rate of ˜30 chamber volumes per minute. Chemicals were applied via the perfusion system.

closed head injury = test: Mouse model of closed head injury, Neurological Severity Score (NSS); format: in vivo; details: subcutaneous 0.751 μg/gr body weight 15 min after injury, up to 27 days
Text: Brain injury is known to disrupt the blood-brain barrier and to induce edema and release auto-destructive factors that produce delayed neuronal damage and neuronal cell death. An experimental model of […] (CHI) in the rat and mouse has been developed and studied mechanistically (Beni-Adani et al 2001; Chen et al 1996). In the present study, CHI was induced under ether anesthesia by allowing a metal rod (333 g) to fall over the exposed skull covering the left hemisphere in the midcornal plane of a 35-45 g Mouse. […] Neurobehavioral evaluations were performed over the next 27 d.
A Neurological Scoring System (NSS) was used to determine ability to perform 10 different behavioral tasks, involving motor ability, balance, and alertness of the mice (Table 4). One point is assigned for failing to perform each task; thus, a normal uninjured mouse scores 0. Injury severity is defined by initial NSS, which is evaluated 1 h post-CHI and referred to as “NSS1.” This value is also a reliable predictor of clinical outcome, with fatal or near-fatal injury corresponding to NSS1 of 7-8; moderate injury to NSS1 of 5-6, and mild injury to NSS1 of <4.

TRPM7 [2] = target: T2, TRPM7; test: cell-based; details: read-out: Inhibition of total presynaptic strength (S)
TRPV3 = details: literature; cited from earlier work
TRPM7 [3] = details: 500 μM
TRPM7 [4] = target: T2, TRPM7; details: 500 μM
TRPM8 = TRPM8 (Homo sapiens, UniProt Q7Z2W7); details: literature (Vogt-Eisele 2007); cited from earlier work
Chain of TRPM8 (Q7Z2W7 whole entry, species assumed): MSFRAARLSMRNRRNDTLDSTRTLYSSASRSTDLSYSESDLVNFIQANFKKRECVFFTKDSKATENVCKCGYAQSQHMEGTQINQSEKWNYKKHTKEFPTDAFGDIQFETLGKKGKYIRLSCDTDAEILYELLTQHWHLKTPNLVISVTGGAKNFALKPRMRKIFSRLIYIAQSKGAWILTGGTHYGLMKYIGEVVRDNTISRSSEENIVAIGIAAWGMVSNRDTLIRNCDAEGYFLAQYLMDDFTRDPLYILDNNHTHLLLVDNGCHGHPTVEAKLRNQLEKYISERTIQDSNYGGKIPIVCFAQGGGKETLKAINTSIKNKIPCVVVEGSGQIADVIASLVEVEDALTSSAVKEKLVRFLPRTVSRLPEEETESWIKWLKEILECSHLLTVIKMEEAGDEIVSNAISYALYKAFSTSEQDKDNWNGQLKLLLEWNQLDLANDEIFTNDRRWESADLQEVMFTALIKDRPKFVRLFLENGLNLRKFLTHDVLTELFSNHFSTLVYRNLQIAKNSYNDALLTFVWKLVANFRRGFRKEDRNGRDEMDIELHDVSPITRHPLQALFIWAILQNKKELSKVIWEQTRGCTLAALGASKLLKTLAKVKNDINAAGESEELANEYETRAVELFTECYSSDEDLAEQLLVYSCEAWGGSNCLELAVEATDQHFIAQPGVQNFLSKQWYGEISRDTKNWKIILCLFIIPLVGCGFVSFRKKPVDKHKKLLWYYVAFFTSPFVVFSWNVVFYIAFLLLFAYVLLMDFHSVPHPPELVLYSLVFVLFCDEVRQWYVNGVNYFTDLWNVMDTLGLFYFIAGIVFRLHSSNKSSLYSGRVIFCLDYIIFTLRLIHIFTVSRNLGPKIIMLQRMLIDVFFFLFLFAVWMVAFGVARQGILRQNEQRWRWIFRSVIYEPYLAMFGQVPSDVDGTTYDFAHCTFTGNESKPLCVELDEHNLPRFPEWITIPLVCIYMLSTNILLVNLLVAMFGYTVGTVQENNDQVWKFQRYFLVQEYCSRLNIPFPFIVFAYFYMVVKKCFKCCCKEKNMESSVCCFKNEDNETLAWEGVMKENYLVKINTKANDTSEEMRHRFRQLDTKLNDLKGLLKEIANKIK

With Cc1ccc(C(C)C)cc1O [Compound IX, 5-Isopropyl-2-methylphenol] the “Effect on light-induced current (LIC) of WT flies, native TRP” value (TRP) was “inhibited LIC of WT flies”, the “Reversibility of TRPM7 block” value (TRPM7 [1]; HEK cells) was “reversibly blocked activity” and the “Effect on TRPM7-mediated current” value (TRPM7 [1]; HEK cells expressing TRPM7, IX 500 μM) was “Large and dose-dependent suppression of the current; also recorded: dramatic decrease in the TRPM7 mediated current”. For the same molecule, the “Effect in mock-transfected HEK293 cells (TRPM7 not expressed)” value (TRPM7 [1]; control) was “no effect was observed”, the “NSS recovery after closed head injury vs saline” value (closed head injury) was “NSS scores dropped significantly more; also recorded: significant protective effect from brain damage” and the inhibition at 500 µM (TRPM7 [2]) was 47 ± 3%. For the same molecule, the TRPV3 activation (TRPV3) was “believed to activate TRPV3”, the “ΔF median of boutons after compound application” value (TRPM7 [3]; control neurons, 88 before) was 87 arbitrary units and the “Number of FM-detectable boutons after compound application” value (TRPM7 [3]; control neurons, 764 before) was 845. For the same molecule, the “Effect on presynaptic activity in control neurons” value (TRPM7 [3]; neurons lacking TRPM7-GFP) was “did not affect presynaptic activity”, the “Effect on vesicle release in control neurons” value (TRPM7 [3]; neurons lacking TRPM7-GFP) was “did not alter vesicle release” and the “Effect on vesicle release in TRPM7-GFP-expressing neurons” value (TRPM7 [4]; 30 APs@1 Hz) was “significantly decreased vesicle release”. The “ΔF median of boutons after compound application” value (TRPM7 [4]; TRPM7-GFP-expressing neurons, 73 before) was 75 arbitrary units, the “Number of FM-detectable boutons after compound application” value (TRPM7 [4]; TRPM7-GFP-expressing neurons, 578 before) was 318 and the “Effect on TRPM8” value (TRPM8) was “only a minimal effect on TRPM8”.
